# Test results published in US11229633B2, “Arimoclomol formulation” (Orphazyme A/S, priority 2014, dated 2022).
# Experiments:
# human OAT1 = target: T1, human OAT1 (Homo sapiens, UniProt Q4U2R8); assay: Uptake transporter substrate feasibility assay, OAT1; assay type: in vitro ADME; parameters: key to Substrate: NIO: No interaction observed
# T1 construct: expressed in transfected cells; host or cells: CHO (protocol UPT-CHO-OAT1-Tenofovir; control: parental CHO-K1)
# T1 sequence (Q4U2R8 1-563): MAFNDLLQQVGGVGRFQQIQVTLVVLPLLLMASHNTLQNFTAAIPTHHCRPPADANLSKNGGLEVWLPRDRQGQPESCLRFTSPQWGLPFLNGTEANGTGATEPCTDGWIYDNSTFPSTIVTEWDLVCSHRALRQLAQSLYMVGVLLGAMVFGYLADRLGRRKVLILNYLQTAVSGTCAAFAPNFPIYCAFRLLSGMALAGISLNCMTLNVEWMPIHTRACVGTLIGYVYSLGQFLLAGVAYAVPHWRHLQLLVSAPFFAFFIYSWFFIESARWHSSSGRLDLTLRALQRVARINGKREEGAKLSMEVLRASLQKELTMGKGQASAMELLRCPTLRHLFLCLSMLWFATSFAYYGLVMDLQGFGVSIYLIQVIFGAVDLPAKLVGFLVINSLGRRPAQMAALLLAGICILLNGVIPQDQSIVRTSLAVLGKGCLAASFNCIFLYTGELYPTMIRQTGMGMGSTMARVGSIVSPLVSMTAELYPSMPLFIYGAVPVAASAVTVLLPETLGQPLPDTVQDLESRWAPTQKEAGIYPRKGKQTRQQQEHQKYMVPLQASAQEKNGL
# Experimental: Uptake experiments were performed using CHO, MDCKII, or HEK293 cells stably expressing the respective uptake transporters.
# Cells were cultured at 37±1° C. in an atmosphere of 95:5 air:CO2 as described in Table 4 and were plated onto standard 24-well tissue culture plates at 2×10^5 cells/well. The uptake of the TA was determined using cells overexpressing the respective uptake transporter and control cells, at two incubation time points (2 and 20 min) and at two concentrations (1 and 10 μM) of TA to determine whether or not the TA was actively taken up into the cells.
# Before the experiment, the medium was removed and the cells were washed twice with 300 μl of HK buffer (pH 7.4) (prepared from Sigma chemicals). Cellular uptake of TA into the cells was measured by adding 300 μl of HK buffer containing TA and incubating them at 37±1° C. Reactions were quenched by removing the HK buffer containing the TA and the cells were washed twice with 300 μl of HK buffer. Cells were lysed by adding 300 μl of MeOH:H2O (2:1) and incubated for 20 minutes at 4±1° C. The amount of TA in the cell lysate was determined by LC-MS/MS. The amount of protein in each well was quantified using the BCA kit for protein determination (Sigma-Aldrich, St Louis, Mo., USA). Uptake of the probe substrate in control cells provided background activity values for all data points. Incubation without reference inhibitor (solvent only) provided 100% activity values. A reference inhibitor served as positive control for inhibition.
# The fold accumulation value was defined as the ratio of uptake of TA or probe substrate into transfected and control cells:
# [formula] UPTTRP: accumulated amount of TA or probe substrate in transfected cells normalized by protein content [pmol/mg protein] UPTCTL: accumulated amount of TA or probe substrate in control cells normalized by protein content [pmol/mg protein]
# If the fold accumulation is >2 and can be inhibited by a known inhibitor of the transporter, the TA can be considered to be a substrate of the respective transporter.
# OATP1B1 = target: T2, OATP1B1 (Homo sapiens, UniProt Q9Y6L6); assay: Substrate statement, OATP1B1; assay type: in vitro ADME
# T2 sequence (Q9Y6L6 1-691): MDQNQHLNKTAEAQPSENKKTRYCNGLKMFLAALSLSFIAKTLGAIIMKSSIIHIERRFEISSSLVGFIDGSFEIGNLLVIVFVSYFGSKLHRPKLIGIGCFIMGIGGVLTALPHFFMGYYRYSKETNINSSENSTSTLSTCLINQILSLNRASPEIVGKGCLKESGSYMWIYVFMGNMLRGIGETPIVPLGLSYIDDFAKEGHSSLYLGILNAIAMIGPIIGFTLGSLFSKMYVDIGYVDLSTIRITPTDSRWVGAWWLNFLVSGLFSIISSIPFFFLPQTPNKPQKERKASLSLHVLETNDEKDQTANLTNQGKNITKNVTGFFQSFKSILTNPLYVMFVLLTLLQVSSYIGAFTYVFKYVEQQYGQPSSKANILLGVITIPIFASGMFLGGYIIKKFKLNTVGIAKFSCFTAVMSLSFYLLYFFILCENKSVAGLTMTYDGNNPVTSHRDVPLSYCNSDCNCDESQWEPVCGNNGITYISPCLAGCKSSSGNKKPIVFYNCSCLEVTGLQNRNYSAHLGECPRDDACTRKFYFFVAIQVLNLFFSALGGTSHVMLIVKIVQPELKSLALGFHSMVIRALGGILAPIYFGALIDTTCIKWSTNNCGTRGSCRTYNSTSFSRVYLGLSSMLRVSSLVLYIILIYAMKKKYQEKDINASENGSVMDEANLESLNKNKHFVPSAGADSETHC
# [1] = Kinetic solubility assessment in the assay buffers; assay type: physicochemical; conditions: aqueous buffer, kinetic from dmso stock, 37° C.
# Experimental: The aqueous solubility of the TA was determined by spectrophotometric measurements in combination with optical microscopy evaluation (5 and 10× magnification). […] The timeframe of the solubility assessment covered the incubation time of the corresponding in vitro experiment.
# A stock solution and dilution series (5-step, 2-fold dilution series) of TA were prepared in water. Stock solutions were mixed with the appropriate assay buffers in a 96-wells plate and incubated for 10 minutes at 37° C. before the solutions were evaluated at 500 nm. […] Therefore, to be considered soluble at a given concentration, the background corrected absorbance of the TA solution must be less than 0.030 absorbance units (ΔA=Asolution−Ablank <0.030). The background corrected absorbance value for each solution was determined.
compound,measurement,setting,value
"[O-][n+]1cccc(C(Cl)=NOCC(O)CN2CCCCC2)c1 (stereo not drawn) [Arimoclomol, N-[2-hydroxy-3-(1-piperidinyl)-propoxy]-pyridine-1-oxide-3-carboximidoyl chloride]",Substrate of the transporter (in words),human OAT1,not a substrate
same,Fold accumulation,"human OAT1; 1 μM, 2 min",0.77
same,Fold accumulation,"human OAT1; 1 μM, 20 min",0.75
same,Fold accumulation,"human OAT1; 10 μM, 2 min",0.56
same,Fold accumulation,"human OAT1; 10 μM, 20 min",0.73
same,Fold accumulation,"human OAT1; 1 and 10 μM, 2 and 20 min",< 2
same,Substrate,human OAT1; Table 2,NIO
same,Substrate of the transporter (in words),OATP1B1,not a substrate
same,solubility at 10 min,[1],≥ 300 µM
